Measurements: US12234232B2, “Aromatic heterocyclic compound with kinase inhibitory activity” (SHANGHAI ENNOVABIO PHARMACEUTICALS CO., LTD., priority 2018, dated 2025)

Tests used:
JAK3 protein = target: T1, JAK3 protein (Homo sapiens, UniProt P52333); experiment: In vitro JAK3 kinase activity assay (HTRF kinEASE TK); format: biochemical; conditions: 0.75 μM ATP, 25 minutes, room temperature; read-out: IC50 JAK3 (enzyme activity assay)
T1 construct: purchased Carna Biosciences
T1 sequence (P52333 1-1124): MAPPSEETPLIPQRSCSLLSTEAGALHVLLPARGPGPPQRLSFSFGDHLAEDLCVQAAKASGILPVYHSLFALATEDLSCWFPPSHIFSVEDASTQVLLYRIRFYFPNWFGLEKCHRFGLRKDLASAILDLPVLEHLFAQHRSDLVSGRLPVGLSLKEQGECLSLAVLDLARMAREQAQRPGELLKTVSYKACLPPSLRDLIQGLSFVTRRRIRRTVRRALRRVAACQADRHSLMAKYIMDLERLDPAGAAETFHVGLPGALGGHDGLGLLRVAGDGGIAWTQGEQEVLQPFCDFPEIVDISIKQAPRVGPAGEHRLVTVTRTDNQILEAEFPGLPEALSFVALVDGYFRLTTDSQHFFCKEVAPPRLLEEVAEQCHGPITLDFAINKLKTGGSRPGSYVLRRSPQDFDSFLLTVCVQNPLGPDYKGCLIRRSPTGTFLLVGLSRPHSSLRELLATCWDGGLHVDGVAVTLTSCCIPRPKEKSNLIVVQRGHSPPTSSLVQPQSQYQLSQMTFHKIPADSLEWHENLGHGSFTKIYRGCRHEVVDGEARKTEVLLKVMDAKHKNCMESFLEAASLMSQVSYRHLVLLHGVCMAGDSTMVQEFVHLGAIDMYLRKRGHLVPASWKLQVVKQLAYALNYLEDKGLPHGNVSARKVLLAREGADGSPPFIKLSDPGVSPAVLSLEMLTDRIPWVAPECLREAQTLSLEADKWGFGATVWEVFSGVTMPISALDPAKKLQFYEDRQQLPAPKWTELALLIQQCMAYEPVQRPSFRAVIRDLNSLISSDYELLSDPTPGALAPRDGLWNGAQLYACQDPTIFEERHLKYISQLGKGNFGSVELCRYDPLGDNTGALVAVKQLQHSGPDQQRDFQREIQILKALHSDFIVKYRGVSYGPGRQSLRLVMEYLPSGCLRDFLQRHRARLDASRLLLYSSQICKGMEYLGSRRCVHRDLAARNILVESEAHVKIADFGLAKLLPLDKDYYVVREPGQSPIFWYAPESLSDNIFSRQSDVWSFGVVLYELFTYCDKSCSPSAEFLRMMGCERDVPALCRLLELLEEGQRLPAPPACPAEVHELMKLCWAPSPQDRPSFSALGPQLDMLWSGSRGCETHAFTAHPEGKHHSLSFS
Description: (§1) Recombinant human JAK1 protein was purchased from Thermo Fisher. JAK2 and JAK3 proteins were purchased from Carna Biosciences. HTRF kinEASE TK kit was purchased from Cisbio Bioassays. BioTek microplate reader Synergy Neo 2 was used to read the plate.
(§2) The test compounds were of 4-fold serial dilution, and the final concentration ranged from 10 μM to 0.04 nM in duplicates for each concentration. The concentration of DMSO in the reaction system was 1%.
(§3) The reaction included 0.004 ng/gi JAK 3 protein kinase, 1 μM TK Substrate-biotin peptide substrate, 0.75 μM ATP, 1× enzymatic buffer, 5 mM MgCl2, and 1 mM DTT. The detection plate was White Proxiplate 384-Plus plate (PerkinElmer), and the mixture (10 μl) was reacted at room temperature for 25 minutes.
(§4) Reaction detection: 10 μl of detection reagent was added to the reaction plate containing final concentration of 0.125 μM of SA-XL665 and 5 μl 1×TK-Antibody. The mixture was incubated overnight at room temperature. The plate was read using Synergy Neo 2.
(§5) Data analysis: 665/620 Ratio was converted into inhibition rate (%) through the following formula: inhibition rate (%)=(Ratiomax−Ratiotest)/(Ratiomax−Ratiomin)×100%. Ratiomax is a positive control without detection compound, Ratiomin is a negative control without detection compound and kinase, Ratiotest is the detection value of each concentration of different compounds. 4 parameter curve fitting was performed to measure the IC50 (nM) values. The details are shown in, Table 1.

JAK1 [1] = target: T2, JAK1 (Homo sapiens, UniProt P23458); experiment: In vitro JAK1 kinase activity assay (HTRF kinEASE TK); format: biochemical; parameters: purchased Thermo Fisher; conditions: 1.1 μM ATP, 60 minutes, room temperature; read-out: IC50 JAK1 (enzyme activity assay)
T2 sequence (P23458 whole entry): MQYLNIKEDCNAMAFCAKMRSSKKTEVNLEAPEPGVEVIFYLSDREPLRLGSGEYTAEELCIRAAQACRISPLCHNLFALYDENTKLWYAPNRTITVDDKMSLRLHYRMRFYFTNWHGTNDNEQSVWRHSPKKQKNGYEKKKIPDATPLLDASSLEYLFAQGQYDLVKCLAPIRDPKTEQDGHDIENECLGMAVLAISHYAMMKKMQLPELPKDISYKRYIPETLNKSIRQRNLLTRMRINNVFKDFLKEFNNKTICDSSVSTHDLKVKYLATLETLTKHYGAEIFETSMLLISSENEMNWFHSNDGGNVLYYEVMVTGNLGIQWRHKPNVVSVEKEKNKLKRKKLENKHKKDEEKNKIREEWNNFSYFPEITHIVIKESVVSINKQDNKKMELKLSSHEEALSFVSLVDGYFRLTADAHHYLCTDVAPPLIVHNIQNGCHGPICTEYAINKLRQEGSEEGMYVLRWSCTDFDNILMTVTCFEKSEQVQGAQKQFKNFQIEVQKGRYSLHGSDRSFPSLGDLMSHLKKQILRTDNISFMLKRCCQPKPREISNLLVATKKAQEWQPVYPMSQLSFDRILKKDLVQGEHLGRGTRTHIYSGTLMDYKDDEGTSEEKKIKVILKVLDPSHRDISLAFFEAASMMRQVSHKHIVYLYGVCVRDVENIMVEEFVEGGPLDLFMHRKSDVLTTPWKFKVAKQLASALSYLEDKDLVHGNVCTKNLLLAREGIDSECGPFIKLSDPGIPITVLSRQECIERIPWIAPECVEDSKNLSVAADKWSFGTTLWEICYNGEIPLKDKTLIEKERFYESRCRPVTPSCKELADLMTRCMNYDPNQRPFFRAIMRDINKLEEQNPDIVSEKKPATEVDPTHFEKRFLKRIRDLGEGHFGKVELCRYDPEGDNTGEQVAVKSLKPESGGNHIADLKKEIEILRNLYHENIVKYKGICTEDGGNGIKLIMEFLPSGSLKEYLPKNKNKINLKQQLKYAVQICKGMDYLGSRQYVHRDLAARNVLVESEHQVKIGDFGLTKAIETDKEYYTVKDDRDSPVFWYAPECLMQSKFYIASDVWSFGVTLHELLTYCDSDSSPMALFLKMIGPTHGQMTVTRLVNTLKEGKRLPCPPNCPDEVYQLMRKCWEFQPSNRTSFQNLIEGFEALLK
Description: as §1, §2
The reaction included 0.5 ng/μl JAK 1 protein kinase, 1 μM TK Substrate-biotin peptide substrate, 1.1 μM ATP, 1× enzymatic buffer, 5 mM MgCl2, 1 mM MnCl2, 1 mM DTT, and 2.5 nM SEB. The detection plate was White Proxiplate 384-Plus plate (PerkinElmer), and the mixture (10 μl) was reacted at room temperature for 60 minutes.
as §4, §5

JAK2 [2] = target: T3, JAK2 (Homo sapiens, UniProt O60674); experiment: In vitro JAK2 kinase activity assay (HTRF kinEASE TK); format: biochemical; parameters: purchased Carna Biosciences; conditions: 2.7 μM ATP, 25 minutes, room temperature; read-out: IC50 JAK2 (enzyme activity assay)
T3 sequence (O60674 whole entry): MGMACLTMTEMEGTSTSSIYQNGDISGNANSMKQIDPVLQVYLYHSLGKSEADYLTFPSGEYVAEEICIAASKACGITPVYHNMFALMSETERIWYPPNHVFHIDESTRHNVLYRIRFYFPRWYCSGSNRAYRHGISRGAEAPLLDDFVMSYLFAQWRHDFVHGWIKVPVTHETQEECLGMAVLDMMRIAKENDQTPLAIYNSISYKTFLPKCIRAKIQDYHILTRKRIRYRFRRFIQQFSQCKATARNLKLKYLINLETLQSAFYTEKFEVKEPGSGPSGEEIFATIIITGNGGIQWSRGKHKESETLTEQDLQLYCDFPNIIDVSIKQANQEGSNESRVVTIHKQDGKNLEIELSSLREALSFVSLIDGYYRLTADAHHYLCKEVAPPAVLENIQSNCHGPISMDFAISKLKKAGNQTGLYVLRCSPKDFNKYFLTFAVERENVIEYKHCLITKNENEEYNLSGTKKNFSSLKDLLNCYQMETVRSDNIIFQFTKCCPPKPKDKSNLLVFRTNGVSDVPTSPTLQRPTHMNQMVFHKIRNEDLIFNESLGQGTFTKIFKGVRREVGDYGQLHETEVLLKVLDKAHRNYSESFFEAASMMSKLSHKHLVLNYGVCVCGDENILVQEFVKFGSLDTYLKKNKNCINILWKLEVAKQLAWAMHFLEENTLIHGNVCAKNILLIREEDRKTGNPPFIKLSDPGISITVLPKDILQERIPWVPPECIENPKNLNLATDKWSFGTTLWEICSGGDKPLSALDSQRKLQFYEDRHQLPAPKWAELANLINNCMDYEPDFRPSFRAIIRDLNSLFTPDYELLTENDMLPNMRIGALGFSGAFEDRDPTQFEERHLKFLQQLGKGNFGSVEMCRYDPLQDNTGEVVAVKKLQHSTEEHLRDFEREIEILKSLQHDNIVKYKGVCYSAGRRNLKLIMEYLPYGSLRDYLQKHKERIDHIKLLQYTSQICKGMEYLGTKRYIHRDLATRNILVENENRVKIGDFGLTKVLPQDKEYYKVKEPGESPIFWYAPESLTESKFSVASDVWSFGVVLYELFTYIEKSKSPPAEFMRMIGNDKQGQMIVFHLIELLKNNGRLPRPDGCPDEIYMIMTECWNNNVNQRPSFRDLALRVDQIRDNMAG
Description: as §1, §2
as §3, with “included 0.001 ng/μl” for “included 0.004 ng/gi”, “JAK 2” for “JAK 3”, “substrate, 2.7” for “substrate, 0.75”
as §4, §5

JAK1 [3] = target: T2, JAK1; experiment: Cellular JAK1 activity assay: IL-6-stimulated STAT3 phosphorylation in TF-1 cells; format: cell-based; parameters: endogenous in cells; host or cells: TF-1 cells (ATCC); conditions: IL-6 (30 ng/mL), pSTAT3, read-out: IC50 Cell JAK1
Description: (§6) In TF-1 cells, IL-6 stimulation leads to phosphorylation of STAT3 through JAK1, while EPO stimulants phosphorylation of STAT5 via JAK2.
(§7) TF-1 cells were obtained from American Type Culture Collection (ATCC). TF-1 cells were starved overnight (cell density was 100,000 cells/well at plating) in OptiMEM medium without phenol red containing 0.5% fetal bovine serum (FBS), 0.1 mM non-essential amino acids (NEAA), 1 mM sodium pyruvate at 37° C. The compound was serially diluted in DMSO, added to TF-1 cells and incubated at 37° C. for 20 minutes. The final concentration of DMSO was 0.2%. Then, human recombinant cytokine IL-6 (30 ng/mL) or EPO (10 U/mL) was added to the wells containing TF-1 cells. After the cell plate was incubated for 30 minutes, cells were lysed, and the phosphorylation of STAT3 (IL-6) or STAT5 (EPO) in the cell lysate (pSTAT3/total STAT3 Elisa Kit: CST #7300C/CST #7305C; pSTAT5 and total STAT5 Elisa Kit: Abcam #ab205715) was measured. The IC50 value was determined as the concentration of the compound required to inhibit STAT phosphorylation by 50% relative to the measured DMSO control.

JAK2 [4] = target: T3, JAK2; experiment: Cellular JAK2 activity assay: EPO-stimulated STAT5 phosphorylation in TF-1 cells; format: cell-based; parameters: endogenous in cells; host or cells: TF-1 cells (ATCC); conditions: EPO (10 U/mL), pSTAT5, read-out: IC50 Cell JAK2
Description: as §6, §7

Structure (SMILES) | IC50 (JAK3 protein) [nM] | IC50 (JAK1 [1]) [nM] | IC50 (JAK2 [2]) [nM] | IC50 (JAK1 [3]) [nM] | IC50 (JAK2 [4]) [nM]
COc1nn(C)cc1Nc1ncc(C)c(-c2c[nH]c3c(NC(=O)C(C)(C)N4CCN(C)CC4)nccc23)n1 [Example 11] | 500 to 10000 | 5 to 50 | 100 to 10000 |  | 
CCC(C(=O)Nc1nccc2c(-c3nc(Nc4cn(C)nc4OC)ncc3C)c[nH]c12)N1CC(C)N(C)C(C)C1 (centres unmarked) [Example 10] | 500 to 10000 | 5 to 50 | 100 to 10000 | > 1000 | > 20000
CCC(C(=O)Nc1nccc2c(-c3nc(Nc4cccc(NS(C)(=O)=O)c4F)ncc3C)c[nH]c12)N1CCN(C)CC1 (centres unmarked) [Example 22, N-(3-(2-((2-Fluoro-3-(methylsulfonylamino)phenyl)amino)-5-methylpyrimidin-4-yl)-1H-pyrrolo[2,3-c]pyridin-7-yl)-2-(4-methylpiperazin-1-yl)butanamide] | 500 to 10000 | 5 to 50 | < 100 | 100 to 1000 | < 10000
CC[C@@H](C(=O)Nc1nccc2c(-c3nc(Nc4cccc(S(C)(=O)=O)c4F)ncc3C)c[nH]c12)N1CC2CCC(C1)N2C [Example 26, (S)—N-(3-(2-((2-Fluoro-3-(methylsulfonyl)phenyl)amino)-5-methylpyrimidin-4-yl)-1H-pyrrolo[2,3-c]pyridin-7-yl)-2-(8-methyl-3,8-diazabicyclo[3.2.1]octane-3-yl)butanamide] | 500 to 10000 | > 50 | 100 to 10000 |  | 
CCC(C(=O)Nc1nccc2c(-c3nc(Nc4cccc(S(C)(=O)=O)c4F)ncc3C)c[nH]c12)N1CCN(C)CC1 (stereo in doubt) [Example 20, (S)—N-(3-(2-((2-Fluoro-3-(methylsulfonyl)phenyl)amino)-5-methylpyrimidin-4-yl)-1H-pyrrolo[2,3-c]pyridin-7-yl)-2-(4-methylpiperazin-1-yl)butanamide] | 500 to 10000 | 5 to 50 | 100 to 10000 |  | 
CCC(C(=O)Nc1nccc2c(-c3nc(Nc4cn(C)nc4OC)ncc3F)c[nH]c12)N1CCN(C)CC1 (centres unmarked) [Example 17, N-(3-(5-Fluoro-2-((3-methoxy-1-methyl-1H-pyrazol-4-yl)amino)pyrimidin-4-yl)-1H-pyrrole[2,3-c]pyridin-7-yl)-2-(4-methylpiperazin-1-yl)butanamide] | < 500 | < 5 | 100 to 10000 |  | 
CCC(C(=O)Nc1ncnc2c(-c3nc(Nc4cccc(S(C)(=O)=O)c4F)ncc3C)c[nH]c12)N1CCN(C)CC1 (centres unmarked) [Example 29, N-(7-(2-((2-Fluoro-3-(methylsulfonyl)phenyl)amino)-5-methylpyrimidin-4-yl)-5H-pyrrolo[3,2-d]pyrimidin-4-yl)-2-(4-methylpiperazin-1-yl)butanamide] | 500 to 10000 | > 50 | 100 to 10000 |  | 
CCC(C(=O)Nc1nccc2c(-c3nc(Nc4cn(C)nc4OC)ncc3C)c[nH]c12)N1CCN(C2COC2)CC1 (centres unmarked) [Example 18, N-(3-(2-((3-Methoxy-1-methyl-1H-pyrazol-4-yl)amino)-5-methylpyrimidin-4-yl)-1H-pyrrolo[2,3-c]pyridin-7-yl)-2-(4-(oxbutan-3-yl)piperazin-1-yl)butanamide] | < 500 | < 5 | 100 to 10000 |  | 
COc1nn(C)cc1Nc1nccc(-c2c[nH]c3c(NC(=O)[C@@H](C)N4CCN(C)CC4)nccc23)n1 [Example 1, (R)—N-(3-(2-((3-Methoxy-1-methyl-1H-pyrazol-4-yl)amino)pyrimidin-4-yl)-1H-pyrrolo[2,3-c]pyridin-7-yl)-2-(4-methylpiperazin-1-yl)propionamide] | 500 to 10000 | > 50 | 100 to 10000 |  | 

Other lines, results leading:

IC50 (JAK3 protein) [nM] | IC50 (JAK1 [1]) [nM] | IC50 (JAK2 [2]) [nM] | IC50 (JAK1 [3]) [nM] | IC50 (JAK2 [4]) [nM] | Structure (SMILES)
< 500 | 5 to 50 | 100 to 10000 | < 100 | 10000 to 20000 | Cc1cnc(Nc2cccc(S(C)(=O)=O)c2F)nc1-c1c[nH]c2c(NC(=O)NC(C)C)nccc12 [Example 30, 1-(3-(2-((2-Fluoro-3-(methylsulfonyl)phenyl)amino)-5-methylpyrimidin-4-yl)-1H-pyrrolo[2,3-c]pyridin-7-yl)-3-isopropylurea]
< 500 | 5 to 50 | < 100 | 100 to 1000 | < 10000 | CCC(C(=O)Nc1nccc2c(-c3nc(Nc4cn(C)nc4OC)ncc3C)c[nH]c12)N1CCC(N(C)C)CC1 (centres unmarked) [Example 9]
< 500 | 5 to 50 | < 100 | 100 to 1000 | > 20000 | COc1nn(C)cc1Nc1ncc(C)c(-c2c[nH]c3c(Nc4cn(C)nc4OC)nccc23)n1 [Example 5, N-(3-Methoxy-1-methyl-1H-pyrazol-4-yl)-3-(2-((3-methoxy-1-methyl-1H-pyrazole-4-yl)amino)-5-methylpyrimidin-4-yl)-1H-pyrrolo[2,3-c]pyridin-7-amine]
< 500 | 5 to 50 | < 100 | 100 to 1000 | < 10000 | COc1nn(C)cc1Nc1ncc(C)c(-c2c[nH]c3c(NC(=O)C(C(C)C)N4CCN(C)CC4)nccc23)n1 (centres unmarked) [Example 6]
< 500 | 5 to 50 | < 100 | 100 to 1000 | > 20000 | CCC(C(=O)Nc1nccc2c(-c3nc(Nc4cn(C)nc4OC)ncc3C)c[nH]c12)N1CCC(O)C1 (centres unmarked) [Example 8]
